Among the data in patent US6706727B1, “Macrolides” (Novartis AG, priority 2002, dated 2004) are IC50 values, retold here.

The term IC50 denotes the concentration that inhibits the measured activity by half.

This experiment has as its system CD4+ antigen-specific human helper T-cell clone (TCC). In words: Antigen-specific stimulation of the helper T-cell clone (TCC) by monocyte-derived dendritic cells, T-cell proliferation (3H-thymidine). Format: cell-based. The following applies: Dpt-pulsed M-DC, M-DC/T-cell ratio 1/50, 4 day culture. The text has this: This activity is further evidenced in additional testing with the above helper T-cell clone and monocyte-derived dendritic cells:
The CD4^+ antigen-specific human helper T-cell clone (TCC) is established by limiting dilution culture (Van Reijsen T. C. et al, J. Allergy Clin. Immunol. 90 [1992] 184-193). The TCC recognizes a peptide derived from the major allergen Der p1 of the house dust mite Dermatophagoides pteronyssinus (Dpt) in association with the MHC class II restriction molecule HLA-DPw4 (Baselmnns P. J. et al., Human Immunol. 61 [2000] 789-798). To obtain sufficient cell numbers for assay purposes, the TCC is expanded in vitro by activation with immobilized anti-CD3 monoclonal antibody (Leu4, Becton Dickinson, San Jose, Calif., USA) and culture in complete medium supplemented with rIL-2 and rhIL-4 (50 U/ml each) (Van Reijsen et al., supra).
Human monocyte-derived dendritic cells (M-DC) are generated from purified monocytes by culturing in RPMI 1640 culture medium at a cell density of 7×10^5 cells/ml. The culture medium is supplemented with 15% FCS and rh-GM-CSF (300 U/ml) and rh-IL-4 (100 U/ml). At day 7 of culture, 90-95% of the cells express the phenotype of M-DC as verified by flow cytometry and they are used for antigen-specific stimulation of the TCC, which is used at least 14 days after the last challenge by antigen or anti-CD3 mAb to ensure a resting state of the cells. For antigen-specific stimulation, the M-DC are incubated overnight (at least 12 h) in culture medium containing 50 μ/ml of the extract of Dpt (ARTU Biologicals NV, Lelystad, The Netherlands). The content of the major allergen Der p1 used is about 18.5 μg/mg of Dpt extract. The M-DC are washed twice and 50 μl aliquots of the final number of M-DC are added to 5×10^4 T-cells per well in 100 μl medium, giving a M-DC/T-cell ratio of 1/50. Immediately thereafter, 50 μl aliquots of a four-fold final concentration of test compound are added. Each sample is tested in quadruplicate. The test compound is dissolved in ethanol to provide a stock solution of 1 mM and diluted 1/1000 in the complete culture medium that is also used to prepare the final test compound dilution. T-cell proliferation is determined by pulsing with 1 μCi/20 μl/well of (methyl-)^3H-thymidine (Amersham, U.K) during the final 16 hours of a 4 day culture period.
Regarding `CC[C@H]1C/C(C)=C/[C@@H](CC)C(=O)C[C@H](O)[C@@H](C)[C@@H](/C(C)=C/[C@@H]2CC[C@@H](O)[C@H](OC)C2)OC(=O)[C@@H]2CCCCN2C(=O)C(=O)[C@]2(O)O[C@H]([C@@H](OC)C1)[C@@H](OC)C[C@H]2C` [21-ethyl-ascomycin], the half-inhibitory concentration (IC50) turned out to be 0.33 nM.
As for `CC[C@@H]1C[C@H](OC)[C@@H]2O[C@@]1(O)C(=O)C(=O)N1CCCC[C@H]1C(=O)O[C@H](/C(C)=C/[C@@H]1CC[C@@H](O)[C@H](OC)C1)[C@H](C)[C@@H](O)CC(=O)[C@H](CC)/C=C(\C)C[C@H](C)C[C@@H]2OC` [27-ethyl-ascomycin], the IC50 turned out to be 0.88 nM.
For the molecule `CC/C1=C\[C@@H](CC)C(=O)C[C@H](O)[C@@H](C)[C@@H](/C(C)=C/[C@@H]2CC[C@H](Cl)[C@H](OC)C2)OC(=O)[C@@H]2CCCCN2C(=O)C(=O)[C@]2(O)O[C@H]([C@@H](OC)C[C@@H](C)C1)[C@@H](OC)C[C@H]2C` [Compound 19-ethyl-ASM], the IC50 is 6.8 nM.
The result for `CC[C@H]1C/C(C)=C/[C@@H](CC)C(=O)C[C@H](O)[C@@H](C)[C@@H](/C(C)=C/[C@@H]2CC[C@H](Cl)[C@H](OC)C2)OC(=O)[C@@H]2CCCCN2C(=O)C(=O)[C@]2(O)O[C@H]([C@@H](OC)C1)[C@@H](OC)C[C@H]2C` [Compound 21-ethyl-ASM] reads 1.6 nM; that for `CC[C@@H]1C[C@H](OC)[C@@H]2O[C@@]1(O)C(=O)C(=O)N1CCCC[C@H]1C(=O)O[C@H](/C(C)=C/[C@@H]1CC[C@H](Cl)[C@H](OC)C1)[C@H](C)[C@@H](O)CC(=O)[C@H](CC)/C=C(\C)C[C@H](C)C[C@@H]2OC` [Compound 27-ethyl-ASM], 4.6 nM.
